Like-named read-outs stand apart in the source and are kept apart here.
Key:
[1] = test system: BT-20 human breast cancer cells; assay: MTT cytotoxicity assay, BT-20; type: cell-based
Method: (§1) The cytotoxicity assay of synthetic Phorboxazole A and various derivative compounds against human tumor cells was performed using the MTT (3-[4,5-dimethylthiazol-2-yl]-2,5-diphenyl tetrazolium bromide) assay (Boehringer Mannheim Corp., Indianapolis, Ind.). Briefly, exponentially growing brain tumor cells were seeded into a 96-well plate at a density of 2.5×10^4 cells/well and incubated for 36 hours at 37° C. prior to drug exposure. On the day of treatment, culture medium was carefully aspirated from the wells and replaced with fresh medium containing the various phorboxazole A derivative compounds as well as the tyrosine kinase inhibitory isoflavone genistein (GEN) at concentrations ranging from 0.1 to 250 μM. Triplicate wells were used for each treatment.
(§2) Human glioblastoma cells U373 (brain cancer), human B-lineage acute lymphoblastic leukemia cells NALM-6, and human breast cancer cells BT-20 were obtained from American Type Culture Collection (Rockville, Md.) and maintained as a continuous cell line in Dulbecco's modified Eagles's medium supplemented with 10% fetal bovine serum and antibiotics.
(§3) The cells were incubated with the various compounds for 24-36 hours at 37° C. in a humidified 5% CO2 atmosphere. To each well, 10 μl of MTT (0.5 mg/ml final concentration) was added and the plates were incubated at 37° C. for 4 hours to allow MTT to form formazan crystals by reacting with metabolically active cells. The fonnazan crystals were solubilized overnight at 37° C. in a solution containing 10% SDS in 0.01 M HCl. The absorbance of each well was measured in a microplate reader (Labsystems) at 540 nm and a reference wavelength of 690 nm. To translate the OD540 values into the number of live cells in each well, the OD540 values were compared to those on standard OD540-versus-cell number curves generated for each cell line. The percent survival was calculated using the formula: [formula]
(§4) The IC50 values were calculated by non-linear regression analysis.

[2] = test system: U373 human glioblastoma cells; assay: MTT cytotoxicity assay, U373; type: cell-based; conditions: U373 MG, read-out: IC50 [MTT]
Method: as §1, §2, §3, §4

[3] = test system: NALM-6 human B-lineage acute lymphoblastic leukemia cells; assay: MTT cytotoxicity assay, NALM-6; type: cell-based
Method: as §1, §2, §3, §4

[4] = test system: MDA-MB-231 breast cancer cells; assay: In vitro adhesion assay to ECM proteins, MDA-MB-231; type: cell-based, human; conditions: laminin-, fibronectin-, and collagen-coated plates, 0.1 μM to 1 μM for 24 hours
Method: (§5) Human brain tumor cell lines U-373 MG and breast cancer cell lines BT-20 and MDA-MB-231 were obtained from American Type Culture Collection (ATCC, Rockville, Md.) and maintained in liquid culture using DMEM supplemented with 10% fetal bovine serum and antibiotics. Fibroblast conditioned medium was used as a source of chemoattractant in vitro invasion assays. Conditioned medium was prepared as described in the literature (Albini et.al., 1987, Cancer Res., 47:3239-3245).
(§6) In vitro adhesion assays were performed to (a) study the baseline adhesive properties of various breast cancer and glioblastoma cell lines and (b) evaluate the effects of phorboxazole A derivatives on the adhesive properties of breast cancer and glioblastoma cells. The plates for the adhesion assays were precoated with the extracellular matrix proteins laminin, fibronectin, or type IV collagen (each at a final concentration of 1 μg/ml in PBS) overnight at 4° C. and dried. On the day of the experiment, the wells were rehydrated and blocked with 10% bovine serum albumin in PBS for 1 hour at room temperature and used for the adhesion assays, as described below.
(§7) The effects of synthetic phorboxazole A and specific derivatives on adhesion of breast cancer and glioblastoma cells was studied. Exponentially growing cells in DMEM were incubated with phorboxazole compounds or genistein as a control at concentrations ranging from 0.1 μM to 1 μM for 24 hours in a humidified 5% CO2 atmosphere. DMSO (0.1%) was included as a vehicle control. After treatment, cells were detached from the flasks with 0.05% trypsin (Life Technologies) resuspended in DMEM, incubated at 37° C. for 2 hours to allow them to recover from the trypsinization stress and examined for their ability to adhere to plates precoated with ECM proteins.
(§8) In adhesion assays, cells were centrifuged, washed twice with serum-free DMEM, counted and resuspended in serum-free DMEM to a final concentration of 2.5×10^5 cells/ml. […] The adherent fraction was quantitated using MTT (3-[4,5-dimethylthiazol-2-yl]-2,5-diphenyltetrazolium bromide) assays. […] The absorbance of each well was measured in a microplate reader (Labsystems) at 540 nm and a reference wavelength of 690 nm.
(§9) To translate the OD540 values into the number of cells in each well, the OD540 values were compared to those on standard OD540-versus-cell number curves generated for each cell line. The adherent fractions of cells treated with phorboxazole A derivatives were compared to those of DMSO-treated control cells and the percent inhibition of adhesion was determined using the formula: [formula]
(§10) Each treatment condition was evaluated in duplicate in 3 independent experiments. The IC50 values were calculated by non-linear regression analysis. […]

U373 glioblastoma cells [5] = assay: Matrigel invasion assay (Boyden chambers); type: cell-based; conditions: Homo sapiens, U373 MG, read-out: IC50, inhibition of glioblastoma cell invasion through Matrigel
Method: The in vitro invasiveness of human brain tumor cell lines U-373 MG and breast cancer cell lines BT-20 and MDA-MB-231 cells was assayed using a previously published method which employs Matrigel™-coated Costar 24-well transwell cell culture chambers (“Boyden chambers”) with 8.0-μm-pore polycarbonate filter inserts (Albini,et.al, 1987, Cancer Res., 47:3239-3245). The chamber filters were coated with 50 μg/ml of Matrigel™ matrix, incubated overnight at room temperature under a laminar flow hood and stored at 4° C. Matrigel™ matrix is made up of several components of the extracellular matrix (ECM), including collagen, laminin and proteo-glycans. The cancer cells were incubated with 500, 250, 125, 62.5, and 31.2 nM concentrations of the synthetic Phorboxazole compounds for 72 hours.
On the day of the experiment, the coated inserts were rehydrated with 0.5 ml serum-free DMEM containing 0.1% bovine serum albumin for 1-2 hours. The treated cells were trypsinized, washed twice with serum-free DMEM containing BSA, counted and resuspended at 1×10^5 cells/ml. A 0.5 ml cell suspension containing 5×10^4 cells in a serum-free DMEM was added to the Matrigel™-coated and rehydrated filter inserts. A volume of 750 μl of NIH fibroblast conditioned medium was placed as a chemoattractant in 24-well plates and the inserts were placed in wells and incubated at 37° C. for 48 hours.
The invasive cells that migrated to the lower side of the filter were fixed, stained with Hema-3 solutions and counted under microscope. Five to 10 random fields per filter were counted to determine the mean (±SE) values for the invasive fraction. The invasive fractions of cells treated with phorboxazole A derivatives were compared to those of DMSO treated control cells and the percent inhibition of invasiveness was determined using the formula: [formula]
Each treatment condition was evaluated in duplicate in 3 independent experiments. IC50 values were calculated by non-linear regression analysis using Graphpad Prisin Software Version 2.0 (Graphpad Software Inc., San Diego, Calif.).

[6] = test system: BT-20 breast cancer cells; assay: In vitro adhesion assay to ECM proteins, BT-20; type: cell-based, human; conditions: laminin-, fibronectin-, and collagen-coated plates, 0.1 μM to 1 μM for 24 hours
Method: as §5, §6, §7, §8, §9, §10

U373 glioblastoma cells [7] = assay: In vitro adhesion assay to ECM proteins, U373; type: cell-based, human; conditions: laminin-, fibronectin-, and collagen-coated plates, 0.1 μM to 1 μM for 24 hours
Method: as §5, §6, §7, §8, §9, §10

[8] = BT-20 (breast cancer), 24-36 hours, read-out: IC50 [MTT]
[9] = U373 (brain tumor, glioblastoma), 24-36 hours
[10] = NALM-6 (leukemia, ALL), 24-36 hours, read-out: IC50 [MTT]

Compound	IC50 ([1]; BT-20, read-out: IC50 [MTT])	IC50 [2]	IC50 ([3]; NALM-6, read-out: IC50 [MTT])	IC50 [1, 8]	IC50 [2, 9]	IC50 [3, 10]	Inhibition of cell adhesion [4]	IC50 (U373 glioblastoma cells [5])	Inhibition of cell adhesion [6]	Inhibition of cell adhesion (U373 glioblastoma cells [7])	IC50 (U373 glioblastoma cells [5]; cells treated 72 hours, invasion 48 hours)
C=C1C[C@@H]2C[C@@H]3C[C@@H](O)C[C@@H](O3)c3coc(n3)/C=C/C[C@H]3O[C@@H](/C(C)=C/c4coc(C)n4)[C@H](C)[C@@H](OC(=O)/C=C\C[C@@H](C1)O2)[C@H]3C [Compound 2, 32-Methyl-phorboxolide A (C1-C32 analog)]	> 2000 nM	> 2000 nM	> 2000 nM								
C=C1C[C@@H]2C[C@@H]3C[C@@H](O)C[C@@H](O3)c3coc(n3)/C=C/C[C@H]3O[C@@H](/C(C)=C/c4coc(C[C@]5(O)C[C@H](OC)C[C@H](CO)O5)n4)[C@H](C)[C@@H](OC(=O)/C=C\C[C@@H](C1)O2)[C@H]3C [Compound 3, C1-C38 Phorboxazole A]				> 2000 nM	> 2000 nM	> 2000 nM					
COC(=O)/C=C/C[C@H]1O[C@@H](/C(C)=C/c2coc(C[C@]3(O)C[C@H](OC)C[C@H]([C@H](O)/C=C(C)/C=C/[C@@H](C/C=C/Br)OC)O3)n2)[C@H](C)[C@@H](OC(C)=O)[C@H]1C [Compound 4, 24-O-Acetyl-18-methyl-phorboxylate (C18-C46 analog)]	> 2000 nM	> 2000 nM	> 2000 nM				active	152 nM	active	active	
COC(=O)C[C@]1(O)C[C@H](OC)C[C@H]([C@H](O)/C=C(C)/C=C/[C@@H](C/C=C/Br)OC)O1 [Compound 5, 31-Methyl-phorboxylate (C31-C46 analog)]	> 2000 nM	> 2000 nM	> 2000 nM				active	422 nM	active	active	
C=C1C[C@@H]2C[C@@H]3C[C@@H](O)C[C@@H](O3)c3coc(n3)/C=C/C[C@H]3O[C@@H](/C(C)=C/C(CO)NC(=O)C[C@]4(O)C[C@H](OC)C[C@H]([C@H](O)/C=C(C)/C=C/[C@@H](C/C=C/Br)OC)O4)[C@H](C)[C@@H](OC(=O)/C=C\C[C@@H](C1)O2)[C@H]3C (stereo partly drawn) [Compound 6, 29-Phorboxamide A (hydrated analog)]				> 2000 nM	> 2000 nM	> 2000 nM	active		active	active	< 125 nM
C#CC[C@H](/C=C/C(C)=C/[C@@H](O)[C@H]1C[C@@H](OC)C[C@](Cc2nc(/C=C(\C)[C@@H]3O[C@@H]4C/C=C/c5nc(co5)[C@H]5C[C@H](O)C[C@@H](C[C@H]6CC(=C)C[C@H](C/C=C\C(=O)O[C@@H]([C@H]4C)[C@H]3C)O6)O5)co2)(OC)O1)OC [Compound 7, 45,46-Dehydrobromo-33-O-methyl-Phorboxazole A]				> 2000 nM	> 2000 nM	> 2000 nM					
C=C1C[C@@H]2C[C@@H]3C[C@@H](O)C[C@@H](O3)c3coc(n3)/C=C/C[C@H]3O[C@@H](/C(C)=C/c4coc(C[C@]5(O)C[C@H](OC)C[C@H]([C@H](O)/C=C(C)/C=C/[C@@H](C/C=C/Br)OC)O5)n4)[C@H](C)[C@@H](OC(=O)CCC[C@@H](C1)O2)[C@H]3C [Compound 10, 2,3-Dihydrophorboxazole A]				> 2000 nM	> 2000 nM	> 2000 nM					

— patent US6797721B2, “Phorboxazole derivatives for treating cancer” (Parker Hughes Institute, priority 1999, dated 2004)
